This assay deals with Glycogen synthase kinase-3 beta (Homo sapiens, UniProt P49841). Briefly: Biochemical Assay: The ingredients required for this purpose are mixed in a black 384-well microtiter plate with transparent base (from Greiner, catalog number 781092). The requirements in this connection for each well of the 384-well microtiter plate are 5 nM GSK3β (from Upstate, catalog number xy), 40 μM GSK3β substrate GSM (sequence H-RRRPASVPPSPSLSRHS-(pS)-HQRR, from Upstate, catalog number 2-533), 30 μM nicotinamide adenine dinucleotide NADH (Roche Diagnostics, catalog number 10107735), 50 μM adenosine triphosphate ATP (from Sigma, catalog number A7966) and 2 mM phosphoenolpyruvate (from Roche, catalog number 128112). The required reaction buffer in which the biochemical reaction takes place consists of 50 mM Trizma hydrochloride Tris-HCl pH: 7.5 (from Sigma, catalog number T3253), 5 mM magnesium chloride MgCl2 (from Sigma, catalog number M8266), 0.2 mM DL-dithiothreitol DTT (from Sigma, catalog number D9779), 2 mM ethylenediaminetetraacetic acid EDTA (from Sigma, catalog number E6758), 0.01% Triton X-100 (from Sigma, catalog number T8787) and 0.05% bovine serum albumin BSA (from Sigma, catalog number B4287). Active substances are dissolved in dimethyl sulfoxide DMSO (from Sigma, catalog number D8418) in a concentration of 10 mM. […].
Chain of Glycogen synthase kinase-3 beta (P49841 whole entry): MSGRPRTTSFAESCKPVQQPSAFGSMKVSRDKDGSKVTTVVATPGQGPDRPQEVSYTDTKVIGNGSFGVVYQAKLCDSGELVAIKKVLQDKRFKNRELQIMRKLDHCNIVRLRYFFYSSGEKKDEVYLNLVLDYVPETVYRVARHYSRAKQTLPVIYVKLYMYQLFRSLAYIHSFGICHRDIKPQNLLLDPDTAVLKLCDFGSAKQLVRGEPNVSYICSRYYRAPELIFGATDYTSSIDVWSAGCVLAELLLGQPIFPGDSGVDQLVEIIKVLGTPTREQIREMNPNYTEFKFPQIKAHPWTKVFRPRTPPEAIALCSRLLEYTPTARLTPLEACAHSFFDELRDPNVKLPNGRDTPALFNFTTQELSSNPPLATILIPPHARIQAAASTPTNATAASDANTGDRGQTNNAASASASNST

As for `N#Cc1sc(NCCNc2nc(-c3ccc(Cl)cc3Cl)cn3ccnc23)nc1N`, the IC50 (as a rule, the concentration that inhibits the measured activity by half) is 16 nM.

The values above are taken from ChEMBL document CHEMBL3638705, “Imidazo-, pyrazolopyrazines and imidazotriazines and their use” (2013).
